# Assay results reported in ChEMBL document CHEMBL4765365, “Design, synthesis and antitumour evaluation of pyrrolo[1,2-f]-phenanthridine and dibenzo[f,h]pyrrolo[1,2-b]isoquinoline derivatives” (Eur J Med Chem, 2020).
# pIC50: −log10 of the molar value.
# Legend:
# [1] = tested on: CCRF-CEM; assay: Cytotoxicity against human CCRF-CEM cells assessed as reduction in cell viability incubated for 72 hrs by XTT assay; type: functional, cell-based
# [2] = Cytotoxicity against human PacaS1 cells assessed as reduction in cell viability incubated for 72 hrs by XTT assay; type: functional, cell-based; conditions: PacaS1, 72 h
# [3] = tested on: HCT-116; assay: Induction of cell cycle arrest in human HCT-116 cells assessed as G1 phase at 0.375 uM incubated for 12 hrs by PI staining based flow cytometry analysis (reference value: 53.6 +/- 4.5 %); type: functional
# [4] = tested on: HCT-116; assay: Induction of cell cycle arrest in human HCT-116 cells assessed as S phase at 0.375 uM incubated for 12 hrs by PI staining based flow cytometry analysis (reference value: 15.5 +/- 0.2 %); type: functional
# [5] = tested on: HCT-116; assay: Induction of cell cycle arrest in human HCT-116 cells assessed as G2/M phase at 0.375 uM incubated for 12 hrs by PI staining based flow cytometry analysis (reference value: 21.7 +/- 1.9 %); type: functional
# [6] = tested on: HCT-116; assay: Induction of cell cycle arrest in human HCT-116 cells assessed as G1 phase at 1.5 uM incubated for 24 hrs by PI staining based flow cytometry analysis (reference value: 55 +/- 9.8 %); type: functional
# [7] = tested on: HCT-116; assay: Induction of cell cycle arrest in human HCT-116 cells assessed as G2/M phase at 1.5 uM incubated for 24 hrs by PI staining based flow cytometry analysis (reference value: 9.3 +/- 0.8 %); type: functional
# [8] = tested on: HCT-116; assay: Induction of cell cycle arrest in human HCT-116 cells assessed as G1 phase at 1.5 uM incubated for 36 hrs by PI staining based flow cytometry analysis (reference value: 57.4 +/- 1.3 %); type: functional
# [9] = tested on: HCT-116; assay: Induction of cell cycle arrest in human HCT-116 cells assessed as G2/M phase at 1.5 uM incubated for 36 hrs by PI staining based flow cytometry analysis (reference value: 23.6 +/- 1 %); type: functional
# [10] = tested on: NCI-H460; assay: Induction of cell cycle arrest in human NCI-H460 cells assessed as G1 phase at 0.75 uM measured at 0 hrs by PI staining based flow cytometry analysis (reference value: 53.4 +/- 4.8 %); type: functional
# [11] = tested on: NCI-H460; assay: Induction of cell cycle arrest in human NCI-H460 cells assessed as G0 phase at 0.75 uM incubated for 24 hrs by PI staining based flow cytometry analysis (reference value: 1.6 +/- 0.6 %); type: functional
# [12] = tested on: NCI-H460; assay: Induction of cell cycle arrest in human NCI-H460 cells assessed as G2/M phase at 0.75 uM incubated for 24 hrs by PI staining based flow cytometry analysis (reference value: 21 +/- 6.7 %); type: functional
# [13] = tested on: NCI-H460; assay: Induction of cell cycle arrest in human NCI-H460 cells assessed as G0 phase at 0.75 uM incubated for 36 hrs by PI staining based flow cytometry analysis (reference value: 2.8 +/- 0.7 %); type: functional
# [14] = tested on: NCI-H460; assay: Induction of cell cycle arrest in human NCI-H460 cells assessed as G1 phase at 0.75 uM incubated for 36 hrs by PI staining based flow cytometry analysis (reference value: 57.9 +/- 3.6 %); type: functional
# [15] = tested on: NCI-H460; assay: Induction of cell cycle arrest in human NCI-H460 cells assessed as G2/M phase at 1.5 uM incubated for 12 hrs by PI staining based flow cytometry analysis (reference value: 22.9 +/- 6.8 %); type: functional
# [16] = tested on: NCI-H460; assay: Induction of cell cycle arrest in human NCI-H460 cells assessed as G1 phase at 1.5 uM incubated for 36 hrs by PI staining based flow cytometry analysis (reference value: 57.9 +/- 3.6 %); type: functional
# [17] = tested on: NCI-H460; assay: Induction of cell cycle arrest in human NCI-H460 cells assessed as G2/M phase at 1.5 uM incubated for 36 hrs by PI staining based flow cytometry analysis (reference value: 25 +/- 1.2 %); type: functional
# [18] = tested on: NCI-H460; assay: Induction of cell cycle arrest in human NCI-H460 cells assessed as S phase at 3 uM measured at 0 hrs by PI staining based flow cytometry analysis (reference value: 12.2 +/- 2.8 %); type: functional
# [19] = tested on: NCI-H460; assay: Induction of cell cycle arrest in human NCI-H460 cells assessed as G0 phase at 3 uM incubated for 24 hrs by PI staining based flow cytometry analysis (reference value: 1.6 +/- 0.6 %); type: functional
# [20] = tested on: NCI-H460; assay: Induction of cell cycle arrest in human NCI-H460 cells assessed as G1 phase at 3 uM incubated for 24 hrs by PI staining based flow cytometry analysis (reference value: 56.8 +/- 7.6 %); type: functional
# [21] = tested on: NCI-H460; assay: Induction of cell cycle arrest in human NCI-H460 cells assessed as S phase at 3 uM incubated for 36 hrs by PI staining based flow cytometry analysis (reference value: 7.6 +/- 3.9 %); type: functional
# [22] = tested on: NCI-H460; assay: Induction of apoptosis in human NCI-H460 cells assessed as necrotic cells at 3 uM incubated for 48 hrs by annexin V-FITC and PI staining based flow cytometry analysis (reference value: 0.7 %); type: functional
# [23] = tested on: HCT-116; assay: Antitumor activity against human HCT-116 cells xenografted in nude mouse assessed as reduction in tumor size at 30 mg/kg, iv administered for 5 days and repeated cycle for 2 days interval and measured on day 24; type: functional; conditions: HCT-116, iv, 576 h, time 24 day, read-out: TGI
# [24] = tested on: NCI-H460; assay: Antitumor activity against human NCI-H460 cells xenografted in nude mouse assessed as reduction in tumor size at 30 mg/kg, iv administered for 5 days and repeated cycle for 2 days interval and measured on day 24; type: functional; conditions: 576 h, time 24 day, read-out: TGI
compound,measurement,setting,value
OCc1cn2c3ccccc3c3ccccc3c2c1CO,pIC50,[1],6.43
same,pIC50,[2],5.85
same,Activity,[3],51.6%
same,Activity,[4],16.9%
same,Activity,[5],23.2%
same,Activity,[6],54.5%
same,Activity,[7],30.3%
same,Activity,[8],52.3%
same,Activity,[9],20.7%
same,Activity,[10],54.9%
same,Activity,[11],1.8%
same,Activity,[12],24.1%
same,Activity,[13],1.9%
same,Activity,[14],67.8%
same,Activity,[15],25.1%
same,Activity,[16],73.1%
same,Activity,[17],17.5%
same,Activity,[18],12.2%
same,Activity,[19],5.2%
same,Activity,[20],49.3%
same,Activity,[21],9.6%
same,Activity,[22],1.6%
same,inhibition in vivo at 30 mg/kg,[23],72%
same,inhibition in vivo at 30 mg/kg,[24],66%
